This note sets out measurements from patent EP4644375A1, “SUBSTITUTED HYDROQUINOLINES FOR THE TREATMENT OF GLIOBLASTOMA MULTIFORME” (Molius Saglik Teknolojileri Anonim Sirketi, priority 2024, dated 2025).

Each structure is given as a SMILES string.

For test [1], the system named is U138-MG human glioma cell. Briefly: Cell proliferation analysis (MTT). Format: cell-based. Particulars: 10 µM, two days, MTT; for activity at 10 µM / inhibition at 10 µM: Homo sapiens, 48 h.
A further test concerns U87-MG human glioma cell. Briefly: Cell proliferation analysis (MTT). Format: cell-based. Particulars: for activity at 10 µM / inhibition at 10 µM: Homo sapiens, U-87 MG, 48 h; for activity at 10 µM / inhibition at 10 µM / Cell Proliferation (%): two days, MTT, 10 µM.

As usually defined, the inhibition is the change of the read-out against control, counted positive when it falls. On to `C=Cc1ccc(CN2C(=O)CCc3cc(OCCCCc4nnnn4C4CCCCC4)ccc32)cc1` [TR-G107, 6-(4-(1-cyclohexyl-1H-tetrazol-5-yl)butoxy)-1-(4-vinylbenzyl)-3,4-dihydroquinolin-2(1H)-one], for which the activity at 10 µM in test [1] is 103%; in the test with U87-MG human glioma cell it was 47%. The values for the inhibition at 10 µM (in test [1]; with U87-MG human glioma cell) were -3% and 53%, respectively. In addition, the “top 5 target compounds whose treatment resulted in the lowest proliferation” value in the test with U87-MG human glioma cell (ranking) is listed as “top 5”.

Regarding `O=C1CCc2cc(OCCCCc3nnnn3C3CCCCC3)ccc2N1Cc1ccccc1` [TR-G110, 1-benzyl-6-(4-(1-cyclohexyl-1H-tetrazol-5-yl)butoxy)-3,4-dihydroquinolin-2(1H)-one], in test [1], the activity at 10 µM was found to be 69% and the inhibition at 10 µM amounted to 31%. Besides, in the test on U87-MG human glioma cell, the activity at 10 µM turned out to be 58% and the inhibition at 10 µM is 42%.

For `O=C1CCc2cc(OCCCCc3nnnn3C3CCCCC3)ccc2N1Cc1ccc(Cl)cc1` [TR-G111, 1-(4-chlorobenzyl)-6-(4-(1-cyclohexyl-1H-tetrazol-5-yl)butoxy)-3,4-dihydroquinolin-2(1H)-one], in test [1], the “Cell Proliferation (%)” value stood at 91% and the inhibition at 10 µM is 9%. In addition, in the test on U87-MG human glioma cell, the “Cell Proliferation (%)” value was found to be 68% and the inhibition at 10 µM was 32%.

Take `O=C1CCc2cc(OCCCCc3nnnn3C3CCCCC3)ccc2N1Cc1ccc(F)cc1` [TR-G112, 6-(4-(1-cyclohexyl-1H-tetrazol-5-yl)butoxy)-1-(4-fluorobenzyl)-3,4-dihydroquinolin-2(1H)-one]: the activity at 10 µM in test [1] was 43%; in the test on U87-MG human glioma cell it was 60%. For the same compound, the inhibition at 10 µM came to 58% in test [1] and 41% with U87-MG human glioma cell.

For the compound `C=CCOC(=O)N1C(=O)CCc2cc(OCCCCc3nnnn3C3CCCCC3)ccc21` [TR-G114, Allyl 6-(4-(1-cyclohexyl-1H-tetrazol-5-yl)butoxy)-2-oxo-3,4-dihydroquinoline-1(2H)-carboxylate], in test [1], the activity at 10 µM came to 85% and the inhibition at 10 µM amounted to 15%. Further, in the test with U87-MG human glioma cell, the activity at 10 µM came out at 86% and the inhibition at 10 µM was 14%.

Consider `O=C1CCc2cc(OCc3cc(-c4c(F)cccc4Cl)no3)ccc2N1` [TR-G116, 6-((3-(2-chloro-6-fluorophenyl)isoxazol-5-yl)methoxy)-3,4-dihydroquinolin-2(1H)-one], for which, in test [1], the “Cell Proliferation (%)” value came to 59% and the inhibition at 10 µM worked out at 41%. Further, in the test on U87-MG human glioma cell, the “Cell Proliferation (%)” value is recorded as 93% and the inhibition at 10 µM amounted to 7%.

For the compound `O=C1CCc2cc(OCc3cn(CCCN4C(=O)c5ccccc5C4=O)nn3)ccc2N1` [TR-G117, 2-(3-(4-(((2-oxo-1,2,3,4-tetrahydroquinolin-6-yl)oxy)methyl)-1H-1,2,3-triazol-1-yl)propyl)isoindoline-1,3-dione], in test [1], the activity at 10 µM amounted to 106% and the inhibition at 10 µM is -6%. In the test on U87-MG human glioma cell, the activity at 10 µM came out at 96% and the inhibition at 10 µM amounted to 4%.

For the compound `O=C(COc1ccc2c(c1)CCC(=O)N2)Nc1ccc(N2CCOCC2)cc1` [TR-G120, N-(4-morpholinophenyl)-2-((2-oxo-1,2,3,4-tetrahydroquinolin-6-yl)oxy)acetamide], in test [1], the activity at 10 µM worked out at 67% and the inhibition at 10 µM stood at 34%. Further, in the test on U87-MG human glioma cell, the activity at 10 µM was determined as 68% and the inhibition at 10 µM is 33%.

`O=C(COc1ccc2c(c1)CCC(=O)N2)Nc1ccc([N+](=O)[O-])cn1` [TR-G122, N-(5-nitropyridin-2-yl)-2-((2-oxo-1,2,3,4-tetrahydroquinolin-6-yl)oxy)acetamide]: the results for the activity at 10 µM (in test [1]; in the test on U87-MG human glioma cell) were 90% and 82%, respectively. Further, the inhibition at 10 µM in test [1] came to 11%; in the test on U87-MG human glioma cell, 18%.

Consider `O=C(COc1ccc2c(c1)CCC(=O)N2)Nc1ccc(Br)cc1` [TR-G123], for which the activity at 10 µM stood at 109% in test [1] and 92% in the test on U87-MG human glioma cell. For the same compound, the figures for the inhibition at 10 µM (in test [1]; with U87-MG human glioma cell) were -9% and 8%, respectively.

As to `CCCCCCn1cc(COc2ccc3c(c2)CCC(=O)N3)nn1` [TR-G125, 6-((1-hexyl-1H-1,2,3-triazol-4-yl)methoxy)-3,4-dihydroquinolin-2(1H)-one], in test [1], the activity at 10 µM was determined as 82% and the inhibition at 10 µM came to 18%. For the same compound, in the test with U87-MG human glioma cell, the activity at 10 µM is 64% and the inhibition at 10 µM is 36%.

For `NC(=O)COCCOc1ccc2c(c1)CCC(=O)N2` [TR-G126, 2-(2-((2-oxo-1,2,3,4-tetrahydroquinolin-6-yl)oxy)ethoxy)acetamide], in test [1], the activity at 10 µM came out at 97% and the inhibition at 10 µM was determined as 3%. Besides, in the test with U87-MG human glioma cell, the activity at 10 µM is 70% and the inhibition at 10 µM came out at 30%.

On to `CC(C)N(C(=O)Oc1ccc2c(c1)CCC(=O)N2)C(C)C` [TR-G129, 2-oxo-1,2,3,4-tetrahydroquinolin-6-yl diisopropylcarbamate], for which, in test [1], the activity at 10 µM came out at 74% and the inhibition at 10 µM was 26%. Besides, in the test with U87-MG human glioma cell, the activity at 10 µM was 81% and the inhibition at 10 µM was found to be 19%.

With `O=C1CCc2cc(OC(=O)Nc3ccccc3)ccc2N1` [TR-G131, 2-oxo-1,2,3,4-tetrahydroquinolin-6-yl phenylcarbamate], in test [1], the activity at 10 µM stood at 54% and the inhibition at 10 µM was found to be 46%. Moreover, in the test with U87-MG human glioma cell, the activity at 10 µM amounted to 79% and the inhibition at 10 µM was found to be 21%.

Regarding `COc1ccccc1NC(=O)Oc1ccc2c(c1)CCC(=O)N2` [TR-G132, 2-oxo-1,2,3,4-tetrahydroquinolin-6-yl (2-methoxyphenyl)carbamate], the activity at 10 µM in test [1] was determined as 73%; with U87-MG human glioma cell, 78%. Besides, the values for the inhibition at 10 µM (in test [1]; in the test with U87-MG human glioma cell) were 27% and 22%, respectively.

For the compound `O=C1CCc2cc(OC(=O)Nc3ccc([N+](=O)[O-])cc3)ccc2N1` [TR-G133, 2-oxo-1,2,3,4-tetrahydroquinolin-6-yl (4-nitrophenyl)carbamate], the figures for the activity at 10 µM (in test [1]; in the test on U87-MG human glioma cell) were 77% and 93%, respectively. The inhibition at 10 µM in test [1] was 23%; with U87-MG human glioma cell it was 7%.

`Cc1ccccc1NC(=O)Oc1ccc2c(c1)CCC(=O)N2` [TR-G134, 2-oxo-1,2,3,4-tetrahydroquinolin-6-yl-o-tolylcarbamate]: in test [1], the “Cell Proliferation (%)” value is reported as 73% and the inhibition at 10 µM came to 27%. Besides, in the test on U87-MG human glioma cell, the “Cell Proliferation (%)” value is recorded as 70% and the inhibition at 10 µM came out at 30%.

Take `O=C1CCc2cc(OC(=O)Nc3cccc4ccccc34)ccc2N1` [TR-G135, 2-oxo-1,2,3,4-tetrahydroquinolin-6-yl naphthalene-1-ylcarbamate]: in test [1], the activity at 10 µM turned out to be 80% and the inhibition at 10 µM was found to be 20%. Moreover, in the test with U87-MG human glioma cell, the activity at 10 µM turned out to be 71% and the inhibition at 10 µM was 29%.

Consider `O=C1CCc2cc(OC(=O)Nc3ccccc3Br)ccc2N1` [TR-G136, 2-oxo-1,2,3,4-tetrahydroquinolin-6-yl (2-bromophenyl)carbamate], for which, in test [1], the “Cell Proliferation (%)” value came out at 60% and the inhibition at 10 µM came to 40%. Moreover, in the test with U87-MG human glioma cell, the “Cell Proliferation (%)” value came out at 89% and the inhibition at 10 µM turned out to be 11%.

In the case of `O=C1CCc2cc(OC(=O)Nc3ccccc3C(F)(F)F)ccc2N1` [TR-G137, 2-oxo-1,2,3,4-tetrahydroquinolin-6-yl (2-(trifluoromethyl)phenyl)carbamate], in test [1], the activity at 10 µM is 60% and the inhibition at 10 µM is 40%. Also, in the test on U87-MG human glioma cell, the activity at 10 µM turned out to be 73% and the inhibition at 10 µM came out at 27%.
